The record followed here is US20250034197A1, “NUCLEOSIDE-DIPHOSPHATE-HEPTOSE COMPOUNDS FOR TREATING CONDITIONS ASSOCIATED WITH ALPK1 ACTIVITY” (PYROTECH (BEIJING) BIOTECHNOLOGY CO., LTD., priority 2021, published 2025).

For orientation: EC50 means the concentration that produces a half-maximal response.

The experiment deals with T1, ALPK1 (Homo sapiens, UniProt Q96QP1).
T1 construct: endogenous in cells; host or cells: 293T cells
T1 sequence (Q96QP1 whole entry): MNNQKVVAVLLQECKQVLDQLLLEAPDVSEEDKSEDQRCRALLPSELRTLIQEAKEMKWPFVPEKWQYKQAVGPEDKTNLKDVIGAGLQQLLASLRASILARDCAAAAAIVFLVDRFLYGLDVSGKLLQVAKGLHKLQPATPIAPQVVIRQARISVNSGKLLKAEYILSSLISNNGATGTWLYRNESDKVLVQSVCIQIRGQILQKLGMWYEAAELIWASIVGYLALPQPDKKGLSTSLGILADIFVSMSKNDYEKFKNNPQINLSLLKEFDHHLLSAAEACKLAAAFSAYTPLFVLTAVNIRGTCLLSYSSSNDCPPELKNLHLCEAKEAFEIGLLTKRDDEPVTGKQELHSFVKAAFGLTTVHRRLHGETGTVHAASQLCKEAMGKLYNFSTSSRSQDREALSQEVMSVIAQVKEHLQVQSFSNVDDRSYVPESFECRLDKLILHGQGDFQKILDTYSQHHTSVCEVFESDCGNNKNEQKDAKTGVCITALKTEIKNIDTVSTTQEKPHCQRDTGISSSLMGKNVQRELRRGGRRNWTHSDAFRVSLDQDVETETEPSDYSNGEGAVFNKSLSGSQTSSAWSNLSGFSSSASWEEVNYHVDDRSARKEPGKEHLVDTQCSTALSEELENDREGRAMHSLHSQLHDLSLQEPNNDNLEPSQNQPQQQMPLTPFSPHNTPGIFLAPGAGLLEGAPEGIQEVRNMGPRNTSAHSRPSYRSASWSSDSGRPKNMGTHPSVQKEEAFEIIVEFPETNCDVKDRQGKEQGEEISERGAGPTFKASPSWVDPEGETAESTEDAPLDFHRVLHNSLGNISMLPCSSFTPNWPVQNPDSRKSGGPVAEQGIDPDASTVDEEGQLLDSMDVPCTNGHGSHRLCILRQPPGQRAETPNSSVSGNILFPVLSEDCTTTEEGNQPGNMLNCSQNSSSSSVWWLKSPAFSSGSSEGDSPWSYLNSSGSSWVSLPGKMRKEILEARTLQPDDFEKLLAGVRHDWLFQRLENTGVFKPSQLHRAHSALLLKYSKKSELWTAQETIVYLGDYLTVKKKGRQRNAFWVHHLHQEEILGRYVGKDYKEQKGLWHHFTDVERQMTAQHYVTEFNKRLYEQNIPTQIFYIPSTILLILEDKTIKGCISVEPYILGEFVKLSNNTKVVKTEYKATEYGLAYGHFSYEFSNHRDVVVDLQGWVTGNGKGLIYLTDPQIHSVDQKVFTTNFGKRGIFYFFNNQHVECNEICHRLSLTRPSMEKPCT
Briefly: NF-κB luciferase reporter assay in 293T cells (cellular assay). It is filed as cell-based. The protocol:
The compounds disclosed herein activate NF-κB through ALPK1-TIFA axis as determined by the NF-κB luciferase reporter and TIFA phosphorylation. For NF-κB luciferase assay, the plasmids (pNL2.2-BII-5RE-Luc), and control vector (pRL-TK) were transfected into 293T cells with the Jetprime reagents (Polyplus). NF-κB luciferase activity was determined using the dual luciferase assay kit (Promega) according to the manufacturer's instructions. TIFA phosphorylation upon the treatment with the compounds disclosed herein described in Table 1, were assayed with immunoblotting. Briefly, for the immunoblotting assay, the 293T cells were seeded in 12-well-plates and cultured for 16 h, and treated with indicated compounds for another 2 hours. Subsequently, the cells were collected and sampled as the regular western-blotting method, immunoblotted by the TIFA phosphorylation specific antibody (ab214815, Abcam).
The EC50 of the compounds disclosed herein were determined by the NF-κB luciferase reporter assay using 293T cells described supra. Compounds with indicated concentrations were added to the culture medium of 293T and the NF-κB luciferase activity was determined using the dual luciferase assay kit (Promega) according to the manufacturer's instructions. […] These chemical entities induce strong activation of the immune regulator NF-κB.
In general terms: Reporter assays use an easily measured gene product as a stand-in for the process of interest.
Consider `C=C[C@@]1(O)[C@H](O)[C@@H](CO[P@](=O)(S)OP(=O)(O)OC2OC([C@H](COC(C)=O)OC(C)=O)C(OC(C)=O)C(OC(C)=O)C2OC(C)=O)O[C@H]1n1cnc2c(N)ncnc21` (single isomer, unassigned) [Example 31O], for which the concentration giving a half-maximal response (EC50) worked out at 21 nM. This counts as double-digit nanomolar.
`C=C[C@@]1(O)[C@H](O)[C@@H](CO[P@@](=O)(S)OP(=O)(O)OC2OC([C@H](COC(C)=O)OC(C)=O)C(OC(C)=O)C(OC(C)=O)C2OC(C)=O)O[C@H]1n1cnc2c(N)ncnc21` (single isomer, unassigned) [Example 31P] had an EC50 of 7.23 nM.
For `CC(=O)OC[C@H](OC(C)=O)C1OC(OP(=O)(O)O[P@@](=O)(S)OC[C@H]2O[C@@H](n3cnc4c(N)ncnc43)[C@H](N(C)C)[C@@H]2O)C(OC(C)=O)C(OC(C)=O)C1OC(C)=O` (single isomer, unassigned) [Example 35G] the value was 16.9 nM.
For the compound `CC(=O)OC[C@H](OC(C)=O)C1OC(OP(=O)(O)O[P@](=O)(S)OC[C@H]2O[C@@H](n3cnc4c(N)ncnc43)[C@H](N(C)C)[C@@H]2O)C(OC(C)=O)C(OC(C)=O)C1OC(C)=O` (single isomer, unassigned) [Example 35H], the response was half-maximal at 16.7 nM (EC50).
Regarding `CN(C)[C@@H]1[C@H](O)[C@@H](CO[P@](=O)(S)OP(=O)(O)OC2OC([C@@H](O)CO)C(O)C(O)C2O)O[C@H]1n1cnc2c(N)ncnc21` (single isomer, unassigned) [Example 35I], the EC50 was 10.9 nM.
For `CN(C)[C@@H]1[C@H](O)[C@@H](CO[P@@](=O)(S)OP(=O)(O)OC2OC([C@@H](O)CO)C(O)C(O)C2O)O[C@H]1n1cnc2c(N)ncnc21` (single isomer, unassigned) [Example 35J], the 50% effective concentration (EC50) turned out to be 10.3 nM.
For `C=C=C[C@@]1(O)[C@H](O)[C@@H](COP(=O)(S)OP(=O)(O)OC2OC([C@@H](O)CO)C(O)C(O)C2O)O[C@H]1n1cnc2c(N)ncnc21` (single isomer, unassigned) [Example 97D] the value was over 1000 nM; for `C=C[C@@]1(OC)[C@H](O)[C@@H](COP(=O)(S)OP(=O)(O)OC2OC([C@H](COC(C)=O)OC(C)=O)C(OC(C)=O)C(OC(C)=O)C2OC(C)=O)O[C@@H]1n1ccc(=O)[nH]c1=O` (stereo in doubt) [Example 45E], 7.77 nM; for `C#C[C@@]1(F)[C@H](O)[C@@H](COP(=O)(S)OP(=O)(O)OC2OC([C@H](COC(C)=O)OC(C)=O)C(OC(C)=O)C(OC(C)=O)C2OC(C)=O)O[C@H]1n1cnc2c(N)ncnc21` (stereo partly shown) [Example 21C], 15.2 nM.
`C#C[C@@]1(F)[C@H](O)[C@@H](COP(=O)(S)OP(=O)(O)OC2OC([C@H](COC(C)=O)OC(C)=O)C(OC(C)=O)C(OC(C)=O)C2OC(C)=O)O[C@H]1n1ccc(=O)[nH]c1=O` (stereo partly shown) [Example 22C] showed a 50% effective concentration (EC50) of 49.1 nM. Compared with the last compound, the EC50 is about 3.2-fold higher.
Compound `C#C[C@@]1(O)[C@H](O)[C@@H](COP(=O)(S)OP(=O)(O)OC2OC([C@@H](F)COC(C)=O)C(OC(C)=O)C(OC(C)=O)C2OC(C)=O)O[C@H]1n1cnc2c(N)ncnc21` (stereo partly shown) [Example 25A] returned an EC50 of 244 nM.
To `C#C[C@@]1(O)[C@H](O)[C@@H](COP(=O)(S)OP(=O)(O)OC2OC([C@H](COC(C)=O)OC(C)=O)C(OC(C)=O)C(OC(C)=O)C2OC(C)=O)O[C@H]1n1cnc2c(N)ncnc21` (stereo partly shown) [Example 25C] belongs 20 nM; to `C#C[C@@]1(O)[C@H](O)[C@@H](COP(=O)(S)OP(=O)(O)OC2OC([C@H](COC(C)=O)OC(C)=O)C(OC(C)=O)C(OC(C)=O)C2OC(C)=O)O[C@H]1n1ccc(=O)[nH]c1=O` (stereo partly shown) [Example 26C], 45.5 nM; to `C#C[C@]1(O)[C@H](O)[C@@H](COP(=O)(S)OP(=O)(O)OC2OC([C@H](COC(C)=O)OC(C)=O)C(OC(C)=O)C(OC(C)=O)C2OC(C)=O)O[C@H]1n1ccc(=O)[nH]c1=O` (stereo partly shown) [Example 26E], over 3000 nM.
Consider `C=C[C@@]1(O)[C@H](O)[C@@H](COP(=O)(S)OP(=O)(O)OC2OC([C@H](COC(=O)CC)OC(C)=O)C(OC(C)=O)C(OC(C)=O)C2OC(C)=O)O[C@H]1n1cnc2c(N)ncnc21` (stereo partly shown) [Example 31H], for which the EC50 amounted to 0.15 nM.
To `C=C[C@@]1(O)[C@H](O)[C@@H](COP(=O)(OP(=O)(O)OC2OC([C@H](COC(C)=O)OC(C)=O)C(OC(C)=O)C(OC(C)=O)C2OC(C)=O)SCOC(=O)C(C)C)O[C@H]1n1cnc2c(N)ncnc21` (stereo partly shown) [Example 31K] belongs 57.6 nM; to `C=C[C@@]1(O)[C@H](O)[C@@H](COP(=O)(OP(=O)(O)OC2OC([C@H](COC(C)=O)OC(C)=O)C(OC(C)=O)C(OC(C)=O)C2OC(C)=O)SCOC(=O)OC(C)C)O[C@H]1n1cnc2c(N)ncnc21` (stereo partly shown) [Example 31L], 13.8 nM.
For the compound `C=C[C@@]1(O)[C@H](O)[C@@H](COP(=O)(S)OP(=O)(O)OC2OC([C@H](COC(=O)C(C)C)OC(=O)C(C)C)C(OC(C)=O)C(OC(C)=O)C2OC(C)=O)O[C@H]1n1cnc2c(N)ncnc21` (stereo partly shown) [Example 31M], the EC50 is 2.99 nM.
The compound `CC(=O)OC[C@H](OC(C)=O)C1OC(OP(=O)(O)OP(=O)(S)OC[C@H]2O[C@@H](n3cnc4c(N)ncnc43)[C@H](N)[C@@H]2O)C(OC(C)=O)C(OC(C)=O)C1OC(C)=O` (stereo partly shown) [Example 33C] displayed an EC50 of 40.2 nM.
For `CC(=O)N[C@@H]1[C@H](O)[C@@H](COP(=O)(S)OP(=O)(O)OC2OC([C@H](COC(C)=O)OC(C)=O)C(OC(C)=O)C(OC(C)=O)C2OC(C)=O)O[C@H]1n1cnc2c(N)ncnc21` (stereo partly shown) [Example 33E] the value was 434 nM.
To `CN[C@@H]1[C@H](O)[C@@H](COP(=O)(S)OP(=O)(O)OC2OC([C@H](COC(C)=O)OC(C)=O)C(OC(C)=O)C(OC(C)=O)C2OC(C)=O)O[C@H]1n1cnc2c(N)ncnc21` (stereo partly shown) [Example 34C] belongs 345 nM.
For `CN[C@@H]1[C@H](O)[C@@H](COP(=O)(S)OP(=O)(O)OC2OC([C@@H](O)CO)C(O)C(O)C2O)O[C@H]1n1cnc2c(N)ncnc21` (stereo partly shown) [Example 34D] the value was 167 nM; for `CN(C)[C@@H]1[C@H](O)[C@@H](COP(=O)(S)OP(=O)(O)OC2OC([C@@H](O)CO)C(O)C(O)C2O)O[C@H]1n1cnc2c(N)ncnc21` (stereo partly shown) [Example 35D], 38.7 nM.
On to `CC(=O)OC[C@H](F)C1OC(OP(=O)(O)O[P@@](=O)(S)OC[C@H]2O[C@@H](n3cnc4c(N)ncnc43)[C@H](N(C)C)[C@@H]2O)C(OC(C)=O)C(OC(C)=O)C1OC(C)=O` (stereo partly shown) [Example 35K], for which the EC50 was determined as 34.2 nM. This EC50 and that of the compound before are within 1.5-fold of each other.
`CC(=O)OC[C@H](OC(C)=O)C1OC(OP(=O)(O)OP(=O)(S)OC[C@H]2O[C@@H](n3cnc4c(N)ncnc43)[C@H](N3CCC3)[C@@H]2O)C(OC(C)=O)C(OC(C)=O)C1OC(C)=O` (stereo partly shown) [Example 36C] came in with an EC50 of 1620 nM.
To `CC(=O)OC[C@H](OC(C)=O)C1OC(OP(=O)(O)OP(=O)(S)OC[C@H]2O[C@@H](n3cnc4c(N)ncnc43)[C@H](N3CCCC3)[C@@H]2O)C(OC(C)=O)C(OC(C)=O)C1OC(C)=O` (stereo partly shown) [Example 37C] belongs over 3000 nM.
To `Nc1ncnc2c1ncn2[C@@H]1O[C@H](COP(=O)(S)OP(=O)(O)OC2OC([C@@H](O)CO)C(O)C(O)C2O)[C@@H](O)[C@H]1N1CCCC1` (stereo partly shown) [Example 37D] belongs over 3000 nM; to `CC(=O)OC[C@H](OC(C)=O)C1OC(OP(=O)(O)OP(=O)(S)OC[C@H]2O[C@@H](n3ccc(=O)[nH]c3=O)[C@H](N(C)C)[C@@H]2O)C(OC(C)=O)C(OC(C)=O)C1OC(C)=O` (stereo partly shown) [Example 40C], 431 nM; to `CN(C)[C@@H]1[C@H](O)[C@@H](COP(=O)(S)OP(=O)(O)OC2OC([C@@H](O)CO)C(O)C(O)C2O)O[C@H]1n1ccc(=O)[nH]c1=O` (stereo partly shown) [Example 40D], 713 nM.
To `C=C[C@@]1(OC)[C@H](O)[C@@H](COP(=O)(S)OP(=O)(O)OC2OC([C@H](COC(C)=O)OC(C)=O)C(OC(C)=O)C(OC(C)=O)C2OC(C)=O)O[C@H]1n1ccc(=O)[nH]c1=O` (stereo partly shown) [Example 45C] belongs 9.58 nM; to `C#C[C@@]1(OC)[C@H](O)[C@@H](COP(=O)(S)OP(=O)(O)OC2OC([C@H](COC(C)=O)OC(C)=O)C(OC(C)=O)C(OC(C)=O)C2OC(C)=O)O[C@H]1n1ccc(=O)[nH]c1=O` (stereo partly shown) [Example 95C], 34.8 nM.
For `C=C=C[C@@]1(O)[C@H](O)[C@@H](COP(=O)(S)OP(=O)(O)OC2OC([C@H](COC(C)=O)OC(C)=O)C(OC(C)=O)C(OC(C)=O)C2OC(C)=O)O[C@H]1n1cnc2c(N)ncnc21` (stereo partly shown) [Example 97C], the EC50 was 1060 nM.
For `C=C=C[C@@]1(O)[C@H](O)[C@@H](COP(=O)(S)OP(=O)(O)OC2OC([C@H](COC(C)=O)OC(C)=O)C(OC(C)=O)C(OC(C)=O)C2OC(C)=O)O[C@H]1n1ccc(=O)[nH]c1=O` (stereo partly shown) [Example 98C] the value was 2310 nM; for `C=C[C@@]1(N=[N+]=[N-])[C@H](O)[C@@H](COP(=O)(S)OP(=O)(O)OC2OC([C@H](COC(C)=O)OC(C)=O)C(OC(C)=O)C(OC(C)=O)C2OC(C)=O)O[C@H]1n1ccc(=O)[nH]c1=O` (stereo partly shown) [Example 108C], over 3000 nM; for `C#C[C@@]1(N=[N+]=[N-])[C@H](O)[C@@H](COP(=O)(S)OP(=O)(O)OC2OC([C@H](COC(C)=O)OC(C)=O)C(OC(C)=O)C(OC(C)=O)C2OC(C)=O)O[C@H]1n1ccc(=O)[nH]c1=O` (stereo partly shown) [Example 110C], over 3000 nM.
To `CC(=O)OC[C@H](OC(C)=O)C1OC(OP(=O)(O)OP(=O)(S)OC[C@H]2O[C@@H](n3ccc(=O)[nH]c3=O)[C@](C)(N)[C@@H]2O)C(OC(C)=O)C(OC(C)=O)C1OC(C)=O` (stereo partly shown) [Example 112C] belongs 360 nM.
For `C=C[C@@]1(O)[C@H](O)[C@@H](COP(=O)(S)OP(=O)(O)OC2OC([C@H](COC(C)=O)OC(C)=O)C(OC(C)=O)C(OC(C)=O)C2OC(C)=O)O[C@H]1c1coc2c(N)ncnc12` (stereo partly shown) [Example 125C] the value was 2.89 nM.
